One assay deals with T1, PRMT7 (Homo sapiens, UniProt Q9NVM4).
T1 sequence (Q9NVM4 1-692): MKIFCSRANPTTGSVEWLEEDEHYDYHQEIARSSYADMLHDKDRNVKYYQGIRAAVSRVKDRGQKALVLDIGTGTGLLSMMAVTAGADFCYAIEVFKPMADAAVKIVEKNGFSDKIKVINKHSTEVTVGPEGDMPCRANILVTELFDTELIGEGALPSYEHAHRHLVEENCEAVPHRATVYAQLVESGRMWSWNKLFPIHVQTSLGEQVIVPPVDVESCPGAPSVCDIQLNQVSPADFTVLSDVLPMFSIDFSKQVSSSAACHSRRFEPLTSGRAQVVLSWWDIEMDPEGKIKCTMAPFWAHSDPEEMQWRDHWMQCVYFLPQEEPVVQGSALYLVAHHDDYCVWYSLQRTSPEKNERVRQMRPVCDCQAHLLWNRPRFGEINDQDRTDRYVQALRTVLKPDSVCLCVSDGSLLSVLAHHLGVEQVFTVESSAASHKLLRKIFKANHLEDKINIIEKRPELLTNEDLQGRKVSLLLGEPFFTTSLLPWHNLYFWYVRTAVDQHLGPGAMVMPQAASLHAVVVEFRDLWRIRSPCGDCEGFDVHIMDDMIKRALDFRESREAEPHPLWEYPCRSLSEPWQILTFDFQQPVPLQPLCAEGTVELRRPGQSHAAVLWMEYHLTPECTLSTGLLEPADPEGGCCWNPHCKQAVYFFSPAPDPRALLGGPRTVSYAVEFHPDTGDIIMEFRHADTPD
The assay can be described thus: PRMT panel selectivity test, PRMT7. It is filed as biochemical. How it is done: [The procedure below names another target; the source says it served here with some conditions changed.] PRMT1 enzyme activity test were performed in a buffer prepared on the same day 5 consisting of 10 mMTirs-HCl (pH=8.0), 0.01% Tween-20 and 1 mM DTT. The compounds were prepared to the highest inhibitor concentration ultimately required in the 100× reaction with 100% DMSO and then transferred to one well of a 384-well Echo plate (Echo-eligible 384-well polypropylene microplates 2.0, transparent, flat-bottomed) and sequentially diluted in the next well with a 3-fold dilution of 100% DMSO, and so on, with a total of 10 concentrations based on Precision. 100% DMSO was added to two empty wells to serve as control well without compound and control well without enzyme in the same 384-well Echo plate. 250 nL of compound was transferred from each well of the 384-well Echo plate to a 384-well assay plate (384-well polypropylene storage microplate) via the Echo 550 liquid processor. For wells with compounds and control well without compound, a mixture (15 uL) containing PRMT1 enzyme was added to the 384-well assay plate. For control wells without enzyme, the mixture containing the assay buffer (15 uL) was added instead. The compounds were allowed to incubate with PRMT1 for 15 minutes at room temperature, and then a mixture containing ^3H-SAM and peptide (10 uL) was added to start the reaction (final volume=25 uL). […] After 120 min of incubation, the assay was terminated by the addition of non-radiolabeled SAM (5 uL) to a final concentration of 125 uM, which diluted 3H-SAM to a level at which its incorporation into the peptide substrate was no longer detected. […] Plates were read on a microplate counter (MicroBeta2) to measure the amount of ^3H-labeled peptide bound to the surface of the detection plate, measured in counts per minute (cpm).
The raw data were copied from the Reader and the inhibition values were calculated in Excel by Equation (1), Equation (1): Inh %=(CPMmax−CPMcmpd)/(CPMmax−CPMmin)*100, wherein the Max signal was obtained from the enzyme-substrate interaction and the Min signal was obtained from the substrate. […]

In a further assay the test system is Toledo cells. Nature of the assay: Toledo cell proliferation inhibition assay. The assay is classed as cell-based. The note with it: Homo sapiens, Toledo, 144 h; six-day assay, CellTiter-Glo. In outline: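 Toledo cells seeded at 2000 cells/well in RPMI 1640 + 10% FBS and incubated with compound for six days at 37° C, 5% CO2. Viability was then read by CellTiter-Glo luminescence after 30 min orbital mixing.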
In general terms: ATP-based viability assays read luminescence as a measure of living cells.

A further assay concerns the target PRMT1 (Homo sapiens, UniProt Q99873). Nature of the assay: PRMT1 enzyme activity test. The note with it: 0.5 nM PRMT1, 3H-SAM, peptide. The assay is classed as biochemical. Summed up: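 Radiometric methylation assay: 0.5 nM PRMT1 preincubated 15 min at room temperature with compound (10-point 3-fold series, 1% DMSO) in pH 8.0 Tris buffer with Tween-20 and DTT. 0.25 uM ³H-SAM and 0.1 uM biotinylated peptide then reacted 120 min. Product captured on streptavidin FlashPlate and counted; IC50 from four-parameter fit of % inhibition.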

Structures are written as SMILES. pIC50: −log10 of the molar value.

In general, pIC50 refers to the IC50 on a negative log10 scale, so that one unit is a factor of ten.

Sequence of PRMT1 (Q99873 whole entry): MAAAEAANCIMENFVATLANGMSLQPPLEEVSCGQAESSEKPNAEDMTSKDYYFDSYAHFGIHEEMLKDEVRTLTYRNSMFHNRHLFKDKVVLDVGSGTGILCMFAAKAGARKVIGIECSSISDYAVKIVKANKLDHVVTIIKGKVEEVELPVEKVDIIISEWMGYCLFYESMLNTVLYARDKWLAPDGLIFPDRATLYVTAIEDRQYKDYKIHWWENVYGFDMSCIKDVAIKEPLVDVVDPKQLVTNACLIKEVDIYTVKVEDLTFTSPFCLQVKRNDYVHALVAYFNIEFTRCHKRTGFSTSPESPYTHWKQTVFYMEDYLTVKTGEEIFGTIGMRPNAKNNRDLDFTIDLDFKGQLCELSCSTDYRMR

On to `CNCCN(C)Cc1ccccc1C1CCN(c2ccccc2)CC1` [P023], for which the pIC50 at PRMT7 is at most 5.00; in the assay with Toledo cells, above 6.00; on PRMT1, above 7.30.
With `CNCCN(C)Cc1ncccc1N1CCc2ccccc2CC1` [P118], the pIC50 was at most 5.00 against PRMT7, above 6.00 in the assay with Toledo cells and above 7.30 against PRMT1.
The like results for `CCOCC1(COCC)CCC(c2cccnc2CN(C)CCNC)CC1` [P207] were, in that order, at most 5.00, above 6.00 and above 7.30.

These data come from patent US20240307409A1, “ARGININE METHYLTRANSFERASE INHIBITOR AND USE THEREOF” (Cytosinlab Therapeutics Co., Ltd., priority 2021, published 2024).
